Patent publication US20020172967A1, “Identification of non-covalent complexes by mass spectrometry” (priority 2001, published 2002)
Entries after “also recorded” stand apart in the source; their conditions may differ. Where two headings read alike, the source gives them in different places.

How the values were obtained:
[1] = target: T1, stromelysin (catalytic domain) (Homo sapiens, UniProt P08254); experiment: ESI-MS detection of noncovalent complexes and competition experiments with stromelysin; format: binding; settings: for specificity of association (no greater than 1:1 complex): ESI-MS; for competition of two ligands for the same binding site: pairwise ESI-MS experiment, ternary complex present or absent; for competitive / non-competitive binder or non-binder: ESI-MS competition experiments, S1′ site, same binding site as 4-phenylpyridine
T1 construct: The catalytic domain of stromelysin was prepared in accordance with well-known known procedures; made in house
T1 sequence (P08254 100-272 limits assumed): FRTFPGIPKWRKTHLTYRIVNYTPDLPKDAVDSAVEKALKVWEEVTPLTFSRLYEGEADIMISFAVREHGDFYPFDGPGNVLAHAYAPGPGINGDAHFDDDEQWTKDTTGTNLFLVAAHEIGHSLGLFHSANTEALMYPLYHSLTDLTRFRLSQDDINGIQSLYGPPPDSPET
Experimental: FIGS. 7A-7E are ligands that are known to bind in the S1′ site on stromelysin. […] The relative dissociation constants for each for each ligand were measured to optimize the amide. Competition experiments were also performed to assure that each ligand bound in the same binding site as 4-phenylpyridine. [drawing 41]
Acetohydroxamic acid was used as the ligand for the first binding site of stromelysin. It has been reported that complexation of zinc with acetohydroxamic acid prevents autocatalytic degradation of the protein.
The ESI-MS measurements were recorded on a Perkin Elmer Sciex API III mass spectrometer. Samples were introduced via […] i.d. fused silica capillary from a 50 μL syringe using a Harvard Apparatus Model 22-syringe pump at a flow rate of 1.500 μL/min. The orifice potential was set between 55 and 65V, and the interface heater was at 56° C. Mass spectra were obtained by averaging a sufficient number of scans to obtain adequate signal to noise.
The sample was analyzed by ESI-MS.
The catalytic domain of stromelysin was prepared in accordance with well-known known procedures. […] The stromelysin used for this study was in a solution of 20 mM Tris buffer, 5 mM CaCl2, 0.02% NaN3 at a pH of 7.5 and at a concentration of either 19.6 mg/mL or 21.7 mg/mL. Acetohydroxamic acid was used for the zinc-binding site.
The second step in the design process was the identification of a second ligand that binds to the target stromelysin at a site different from the binding site of acetohydroxamic acid. This may be accomplished by screening compounds for their ability to bind stromelysin in the presence of saturating amounts of acetohydroxamic acid.
The next step in the design process was to construct a ternary complex of the target stromelysin, the first ligand and the second ligand. This was accomplished by exposing the stromelysin target to the two ligands under conditions that result in complex formation.

[2] = target: T2, protein tyrosine phosphatase 1b (PTP1b) (Homo sapiens, UniProt P18031); experiment: ESI-MS detection of 1:1 noncovalent complex with PTP1b; format: binding; settings: mass spectrometry; for formation of specific complex with PTP1b: 1:1 noncovalent complex
T2 sequence (P18031 1-435): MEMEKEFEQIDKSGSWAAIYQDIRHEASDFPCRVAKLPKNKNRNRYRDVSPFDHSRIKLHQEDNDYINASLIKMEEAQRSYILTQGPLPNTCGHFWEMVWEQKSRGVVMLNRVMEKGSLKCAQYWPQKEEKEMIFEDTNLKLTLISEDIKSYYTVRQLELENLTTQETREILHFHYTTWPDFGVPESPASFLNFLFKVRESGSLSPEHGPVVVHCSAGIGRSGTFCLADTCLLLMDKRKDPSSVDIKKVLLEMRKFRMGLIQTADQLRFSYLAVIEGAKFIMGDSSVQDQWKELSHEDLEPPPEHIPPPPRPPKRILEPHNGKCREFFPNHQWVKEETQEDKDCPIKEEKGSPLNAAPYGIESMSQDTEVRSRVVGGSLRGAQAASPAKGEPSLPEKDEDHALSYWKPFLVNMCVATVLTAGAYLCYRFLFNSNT
Experimental: (§1) The candidate target binding ligands shown below were tested by mass spectrometry in a manner similar to Example 1 to determine whether any of the fragments bound specifically to the target biomolecule, protein tyrosine phosphatase 1b (PTP1b), observed 1:1 noncovalent complex. Fragment molecules were chosen based on either their ability to mimic the stabilized transition state of PTP1b with a tyrosine phosphate ester or based on their known or suspected ability to inhibit cysteine proteases and the homology or similarities in the active sites PTP1b and cysteine proteases. The transition state mimics included in the library are derivatives of moniliformin and deltic acid. Each of these compounds contain a planar arrangement of oxygen atoms around and electrophilic center, similar to the planar arrangement of oxygen atoms around an electrophilic phosphorous in the stabilized transition state complex of phosphotyrosine and PTP1b. Also contained in the library were various examples of some fragment molecules containing functional groups known or suspected to interact with an active site cysteine of cysteine proteases. Included in this example are aldehydes, α-ketoacids, boronic acids, and […]. Other fragment molecules could contain functional groups such as α-ketoesters, sulfonyl fluorides, haloketones, azabenzenes, and disulfides and other fragment molecules that contain functional groups known or suspected to react with mercaptans. […] The ability of these fragments to block the function of PTP1b was determined by a chromagenic substrate assay.

[3] = target: T3, PTP1b (Homo sapiens, UniProt P18031); experiment: chromagenic substrate assay of PTP1b function; format: biochemical; settings: titration curves, FIG. 4
T3 sequence (P18031 1-435): T2 sequence (P18031 1-435)
Experimental: FIG. 4 is a graph of titration curves used to determine the IC50 of the squaric acid fragment 8A and moniliformin.
as §1

| SMILES | specificity of association (no greater than 1:1 complex) [1] | competition of two ligands for the same binding site [1] | other results |
| --- | --- | --- | --- |
| N#Cc1ccc(NC(=O)Cc2ccccc2)cc1 [N-(4-cyanophenyl)-2-phenylacetamide] | bind to the protein specifically | do not compete for the same binding site on the protein |  |
| O=CCCc1ccccc1 [Compound 8D] |  |  | formation of specific complex with PTP1b [2]: formed specific complexes with PTP1b; IC50 [3]: did not have the ability to block function |
| COc1ccc(C(=O)Nc2ccccc2)cc1 [4-methoxy-N-phenylbenzamide] | specific | compete for the same binding site on the protein |  |
| CC(=O)NO [acetohydroxamic acid] | specific | do not compete for the same binding site on a protein |  |
| c1ccc(-c2ccncc2)cc1 [4-phenylpyridine] | specific; also recorded: bind to the protein specifically |  |  |
| O=c1c(O)c(-c2ccccc2)c1=O [Compound 8A] |  |  | formation of specific complex with PTP1b [2]: formed specific complexes with PTP1b; Kd ([2]; read-out: binding constant (Kd)): 25 µM; IC50 ([3]; read-out: IC50): 60 µM |
| c1ccc(-c2ccncc2)cc1 [Ligand 7B] |  |  | competitive / non-competitive binder or non-binder [1]: non-competitive binders |
| COc1ccc(C(=O)NCc2ccccc2)cc1 [Ligand 7G] |  |  | competitive / non-competitive binder or non-binder [1]: competitive binders |
| N#Cc1ccc(-c2ccc(O)cc2)cc1 [4-(4′-cyanophenyl)-phenol] | specific | do not compete for the same binding site on a protein |  |
| O=c1cc(O)c1=O [moniliformin] |  |  | IC50 ([3]; read-out: IC50): 12 µM |
